In patent publication US4500526A, “Cephalosporin derivatives” (Bristol-Myers Company, priority 1983, dated 1985):
Values after ≈ are worked out from the molar mass of the structure shown. Where two headings read alike, the source gives them in different places.

What was measured:
P. aeruginosa A9843 = assay: Median protective dose in infected mice; type: in vivo; details: Pseudomonas aeruginosa, im, immediately after intraperitoneal challenge, read-out: PD50
Experimental: (§1) The median protective dose (PD50) of some of the preferred compounds against various microorganisms was determined in mice by intramuscular administration of the test compound immediately after an intraperitoneal bacterial challenge.

E. coli Juhl = assay: Median protective dose in infected mice; type: in vivo; details: Escherichia coli, im, immediately after intraperitoneal challenge, read-out: PD50
Experimental: as §1

S. aureus Smith = assay: Median protective dose in infected mice; type: in vivo; details: Staphylococcus aureus, im, immediately after intraperitoneal challenge, read-out: PD50
Experimental: as §1

[1] = tested on: Penicillinsensitive S. aureus (5 strains); assay: MIC, two-fold serial agar dilution, group (G+)-Ia; type: cell-based; details: Staphylococcus aureus; (G+)-Ia, 5 strains, Mueller-Hinton agar; read-out: Geometric Mean of MIC
Experimental: (§2) In the primary evaluation of the compounds of this invention, the Minimum Inhibitory Concentrations (MIC's) of the compounds were determined by the two-fold serial agar dilution method in Mueller-Hinton agar against 32 strains of test organisms in six groups. The sample weights of the test compounds were adjusted according to the purity of each compound, so as to give a more accurate measure of the MIC's.
(G+)Ia: Penicillinsensitive S. aureus (5 strains)

[2] = tested on: Ps. aeruginosa (6 strains); assay: MIC, two-fold serial agar dilution, group (G-)-III; type: cell-based; details: Pseudomonas aeruginosa, read-out: Geometric Mean of MIC
Experimental: as §2
(G-)III: Ps. aeruginosa (6 strains)

[3] = tested on: Penicillinresistant S. aureus (5 strains); assay: MIC, two-fold serial agar dilution, group (G+)-Ib; type: cell-based; details: Staphylococcus aureus; (G+)-Ib, 5 strains, Mueller-Hinton agar; read-out: Geometric Mean of MIC
Experimental: as §2
(G+)Ib: Penicillinresistant S. aureus (5 strains)

[4] = tested on: M. morganii (1 strain), Ent. cloacae (2 strains) and Ser. marcescens (2 strains); assay: MIC, two-fold serial agar dilution, group (G-)-II; type: cell-based; details: read-out: Geometric Mean of MIC
Experimental: as §2
(G-)II: M. morganii (1 strain), Ent. cloacae (2 strains) and Ser.

[5] = Mouse blood levels after single intramuscular injection; type: in vivo, mice; details: in vivo, im, 20 mg/kg
Experimental: The absorption of some of the preferred compounds were determined in mice following a single intramuscular injection of the test compound (dissolved in 0.1M phosphate buffer; pH 7) at a dosage of 20 mg/kg. Blood samples were collected from the orbital sinuses into heparinized capillary tubes and assayed in Nutrient Agar (pH 6.6) using E. coli Ess-22-31 as the test organism. The blood levels at various time intervals, the half-life values (t1/2) and the areas under the curve (AUC) are shown in Table 2.

[6] = tested on: Cephalothinsensitive E. coli (2 strains), Kl. pneumoniae (1 strain) and Pr. mirabilis (2 strains); assay: MIC, two-fold serial agar dilution, group (G-)-Ia; type: cell-based; details: 5 strains, Mueller-Hinton agar, read-out: Geometric Mean of MIC
Experimental: as §2
(G-)Ia: Cephalothinsensitive E. coli (2 strains), Kl. pneumoniae (1
strain) and Pr. mirabilis (2 strains)

[7] = tested on: Cephalothinresistant E. coli (3 strains) and Kl. pneumoniae (3 strains); assay: MIC, two-fold serial agar dilution, group (G-)-Ib; type: cell-based; details: Escherichia coli, read-out: Geometric Mean of MIC
Experimental: as §2
(G-)Ib: Cephalothinresistant E. coli (3 strains) and Kl. pneumoniae (3

[8] = (G-)-II, 5 strains, Mueller-Hinton agar
[9] = (G-)-III, 6 strains, Mueller-Hinton agar

SMILES: Cc1nc2c[n+](CC3=C(C(=O)[O-])N4C(=O)C(NC(=O)/C(=N\OC5(C(=O)O)CCC5)c5csc(N)n5)[C@H]4SC3)ccc2s1 (stereo partly shown) [Im, 7-[(Z)-2-(2-Aminothiazol-4-yl)-2-(1-carboxycyclobut-1-oxyimino)-acetamido]-3-(2-methyl-5-thiazolo[4,5-c]pyridinio)methyl-3-cephem-4-carboxylate]
- ED50 (P. aeruginosa A9843): 9 mg/kg
- ED50 (E. coli Juhl): 0.1 mg/kg
- ED50 (S. aureus Smith): 9.4 mg/kg
- MIC [1]: 3.4 µg/mL (≈ 5.4 µM)
- MIC [2]: 2.5 µg/mL (≈ 3.97 µM)
- MIC [3]: 8.8 µg/mL (≈ 14 µM)
- MIC [4, 8]: 0.25 µg/mL (≈ 0.397 µM)
- AUC [5]: 7100 ng·h/mL
- concentration at 10 min [5]: 13000 ng/mL
- concentration at 20 min [5]: 10000 ng/mL
- concentration at 0.5 h [5]: 6900 ng/mL
- concentration at 40 min [5]: 4800 ng/mL
- concentration at 50 min [5]: 2700 ng/mL
- concentration at 1 h [5]: 2000 ng/mL
- concentration at 1.5 h [5]: 480 ng/mL
- concentration at 2 h [5]: < 200 ng/mL
- half-life [5]: 16 min
- MIC [6]: 0.027 µg/mL (≈ 0.0429 µM)
- MIC [7]: 0.56 µg/mL (≈ 0.889 µM)

SMILES: CO/N=C(\C(=O)NC1C(=O)N2C(C(=O)[O-])=C(C[n+]3ccc4sc(N)nc4c3)CSC12)c1csc(N)n1 (stereo not shown) [In, 7-[(Z)-2-(2-Aminothiazol-4-yl)-2-methoxyiminoacetamido]-3-[{5-(2-aminothiazolo[4,5-c]pyridinio)}methyl]-3-cephem-4-carboxylate]
- ED50 (P. aeruginosa A9843): 2.8 mg/kg
- ED50 (E. coli Juhl): < 0.01 mg/kg
- ED50 (S. aureus Smith): 0.9 mg/kg
- MIC [1]: 0.32 µg/mL (≈ 0.585 µM)
- MIC [2, 9]: 1.9 µg/mL (≈ 3.48 µM)
- MIC [3]: 0.72 µg/mL (≈ 1.32 µM)
- MIC [4, 8]: 0.17 µg/mL (≈ 0.311 µM)
- AUC [5]: 11000 ng·h/mL
- concentration at 10 min [5]: 14000 ng/mL
- concentration at 20 min [5]: 14000 ng/mL
- concentration at 0.5 h [5]: 7600 ng/mL
- concentration at 40 min [5]: 7000 ng/mL
- concentration at 50 min [5]: 4400 ng/mL
- concentration at 1 h [5]: 3900 ng/mL
- concentration at 1.5 h [5]: 2900 ng/mL
- concentration at 2 h [5]: 1000 ng/mL
- half-life [5]: 29 min
- MIC [6]: 0.01 µg/mL (≈ 0.0183 µM)
- MIC [7]: 0.096 µg/mL (≈ 0.176 µM)

SMILES: CO/N=C(\C(=O)NC1C(=O)N2C(C(=O)[O-])=C(C[n+]3ccc4sc(NC(C)=O)nc4c3)CS[C@H]12)c1csc(N)n1 (stereo partly shown) [Ip, 7-[(Z)-2-(2-Aminothiazol-4-yl)-2-methoxyiminoacetamido]-3-(2-acetylamino-5-thiazolo[4,5-c]pyridinio)methyl-3-cephem-4-carboxylate]
- ED50 (P. aeruginosa A9843): 16 mg/kg
- ED50 (E. coli Juhl): 0.29 mg/kg
- ED50 (S. aureus Smith): 1 mg/kg
- MIC [1]: 0.34 µg/mL (≈ 0.578 µM)
- MIC [2, 9]: 11 µg/mL (≈ 18.7 µM)
- MIC [3]: 0.8 µg/mL (≈ 1.36 µM)
- MIC [4, 8]: 0.68 µg/mL (≈ 1.16 µM)
- AUC [5]: 16000 ng·h/mL
- concentration at 10 min [5]: 24000 ng/mL
- concentration at 20 min [5]: 18000 ng/mL
- concentration at 0.5 h [5]: 13000 ng/mL
- concentration at 40 min [5]: 10000 ng/mL
- concentration at 50 min [5]: 6800 ng/mL
- concentration at 1 h [5]: 5500 ng/mL
- concentration at 1.5 h [5]: 2500 ng/mL
- concentration at 2 h [5]: 1400 ng/mL
- half-life [5]: 27 min
- MIC [6]: 0.037 µg/mL (≈ 0.0629 µM)
- MIC [7]: 0.4 µg/mL (≈ 0.68 µM)

SMILES: CO/N=C(\C(=O)NC1C(=O)N2C(C(=O)[O-])=C(C[n+]3ccc4sc(NC(=O)CN)nc4c3)CS[C@H]12)c1csc(N)n1 (stereo partly shown) [Iq, 7-[(Z)-2-(2-Aminothiazol-4-yl)-2-methoxyiminoacetamido]-3-(2-glycylamino-5-thiazolo[4,5-c]pyridinio)methyl-3-cephem-4-carboxylate]
- ED50 (P. aeruginosa A9843): 12 mg/kg
- ED50 (E. coli Juhl): 0.015 mg/kg
- ED50 (S. aureus Smith): 1.8 mg/kg
- MIC [1]: 0.92 µg/mL (≈ 1.52 µM)
- MIC [2, 9]: 10 µg/mL (≈ 16.6 µM)
- MIC [3]: 2.4 µg/mL (≈ 3.98 µM)
- MIC [4]: 0.69 µg/mL (≈ 1.14 µM)
- AUC [5]: 16000 ng·h/mL
- concentration at 10 min [5]: 15000 ng/mL
- concentration at 20 min [5]: 17000 ng/mL
- concentration at 0.5 h [5]: 12000 ng/mL
- concentration at 40 min [5]: 11000 ng/mL
- concentration at 50 min [5]: 9900 ng/mL
- concentration at 1 h [5]: 8800 ng/mL
- concentration at 1.5 h [5]: 3400 ng/mL
- concentration at 2 h [5]: 1500 ng/mL
- half-life [5]: 28 min
- MIC [6]: 0.038 µg/mL (≈ 0.0629 µM)
- MIC [7]: 0.61 µg/mL (≈ 1.01 µM)

SMILES: CO/N=C(\C(=O)NC1C(=O)N2C(C(=O)[O-])=C(C[n+]3ccc4sc(C(N)=O)nc4c3)CS[C@H]12)c1csc(N)n1 (stereo partly shown) [Ix, 7-[(Z)-2-(2-Aminothiazol-4-yl)-2-methoxyiminoacetamido]-3-(2-carbamoyl-5-thiazolo[4,5-c]pyridinio)methyl-3-cephem-4-carboxylate]
- ED50 (E. coli Juhl): 0.013 mg/kg
- ED50 (S. aureus Smith): 1.5 mg/kg
- MIC [1]: 0.53 µg/mL (≈ 0.922 µM)
- MIC [2, 9]: 2.8 µg/mL (≈ 4.87 µM)
- MIC [3]: 0.8 µg/mL (≈ 1.39 µM)
- MIC [4, 8]: 0.39 µg/mL (≈ 0.679 µM)
- AUC [5]: 19000 ng·h/mL
- concentration at 10 min [5]: 20000 ng/mL
- concentration at 20 min [5]: 18000 ng/mL
- concentration at 0.5 h [5]: 20000 ng/mL
- concentration at 40 min [5]: 13000 ng/mL
- concentration at 50 min [5]: 11000 ng/mL
- concentration at 1 h [5]: 7000 ng/mL
- concentration at 1.5 h [5]: 4200 ng/mL
- concentration at 2 h [5]: 2100 ng/mL
- half-life [5]: 31 min
- MIC [6]: 0.022 µg/mL (≈ 0.0383 µM)
- MIC [7]: 0.2 µg/mL (≈ 0.348 µM)
